Measurements reported in patent US11371077B2, “High throughput cell-based screening for aptamers” (MeiraGTx UK II Limited, priority 2016, dated 2022).
Where a name gives a salt, the structure may show the parent alone. Read-outs that look alike come from different tables or passages of the source.

Legend:
Type in all cases: cell-based
ydhl-A6 riboswitch = assay: Luciferase reporter assay, ydhl-A6 riboswitch, transfected HEK 293 cells; conditions: for fold induction at 100 µM: Homo sapiens
From the text: (§1) A truncated human beta-globin intron sequence was synthesized and inserted in the coding sequence of a firefly luciferase gene. A mutant human DHFR exon 2 was synthesized and inserted in the middle of this truncated beta-globin intron sequence using Golden gate cloning strategy. Aptamers including xpt-G/A^1, ydhl-G/A^2, yxj^3, add^4, gdg6-G/A^5 (citations for the aptamers are incorporated herein by reference) were synthesized as oligonucleotides (“oligos”) with 4 nucleotide overhang at the 5′ end that are complementary to two different BsaI sites individually (IDT), annealed and ligated to BsaI-digested mDHFR-Luci-acceptor vector.
(§2) 3.5×10^4 HEK 293 cells were plated in a 96-well flat bottom plate the day before transfection. Plasmid DNA (500 ng) was added to a tube or a 96-well U-bottom plate. […] Then, 50 μL of this diluted transfection reagent was added to the DNA, mixed, and incubated at RT for 20 min. Finally, 7 μL of this solution was added to a well of cells in the 96-well plate.
(§3) 24 hours after media change, plates were removed from the incubator, and equilibrated to RT for several minutes on a lab bench, then aspirated. Glo-lysis buffer (Promega, 100 μL, RT) was added, and the plates maintained at RT for at least 5 minutes. Then, the well contents were mixed by 50 μL trituration, and 20 μL of each sample was mixed with 20 μL of bright-glo reagent (Promega) that had been diluted to 10% in glo-lysis buffer. 96 wells were spaced on an opaque white 384-well plate. Following a 5 min incubation at RT, luminescence was measured using a Tecan machine with 500 mSec read time. The luciferase activity was expressed as mean relative light unit (RLU)±S.D., and fold induction was calculated as the luciferase activity obtained with guanine treatment divided by luciferase activity obtained without guanine treatment.

add-A6 riboswitch = assay: cells; conditions: for fold induction at 100 µM: Homo sapiens
From the text: (§4) Riboswitches were constructed as described in PCT/US2016/016234 (in particular Examples 3 to 6), incorporated herein by reference. A truncated human beta-globin intron sequence was synthesized and inserted in the coding sequence of a firefly luciferase gene. A mutant human DHFR exon 2 was synthesized and inserted in the middle of this truncated beta-globin intron sequence using Golden gate cloning strategy. Aptamers including xpt-G/A^1, ydhl-G/A^2, yxj^3, add^4, gdg6-G/A^5 (citations for the aptamers are incorporated herein by reference) were synthesized as oligonucleotides (“oligos”) with 4 nucleotide overhang at the 5′ end that are complementary to two different BsaI sites individually (IDT), annealed and ligated to BsaI-digested mDHFR-Luci-acceptor vector.
(§5) 3.5×10^4 HEK 293 cells were plated in a 96-well flat bottom plate the day before transfection. Plasmid DNA (500 ng) was added to a tube or a 96-well U-bottom plate. Separately, TransIT-293 reagent (Mirus; 1.4 μL) was added to 50 μL Opti-mem I media (Life Technologies), and allowed to sit for 5 minutes at room temperature (RT). Then, 50 μL of this diluted transfection reagent was added to the DNA, mixed, and incubated at RT for 20 min. Finally, 7 μL of this solution was added to a well of cells in the 96-well plate.
as §3

gdg6-A8 riboswitch = assay: Luciferase reporter assay, gdg6-A8 riboswitch, transfected HEK 293 cells; conditions: for fold induction at 100 µM: Homo sapiens, HEK293, gdg6-A8 riboswitch, Prestwick library compounds at 100 μM, HEK 293; for Fold Induction of luciferase activity: 100 µM
From the text: as §4, §5, §3

yxj-A6 riboswitch = assay: cells; conditions: for fold induction at 100 µM: Homo sapiens
From the text: as §1, §5
as §3, with “The luciferase activity was expressed as mean relative light unit (RLU)±S.D., and fold induction was calculated as the luciferase activity obtained with guanine treatment divided by luciferase activity obtained without guanine treatment.” left out

xpt-G17 riboswitch = assay: Luciferase reporter assay, xpt-G17 riboswitch, transfected HEK 293 cells; conditions: Prestwick library compounds at 100 μM, HEK 293, preliminary screen; for fold induction at 100 µM: Homo sapiens, HEK293, xpt-G17 riboswitch
From the text: as §1, §5, §3

add-G6 riboswitch = assay: cells; conditions: for fold induction at 100 µM: Homo sapiens
From the text: as §1, §2
as §3, with “The luciferase activity was expressed as mean relative light unit (RLU)±S.D., and fold induction was calculated as the luciferase activity obtained with guanine treatment divided by luciferase activity obtained without guanine treatment.” left out

xpt-A8 riboswitch = assay: cells; conditions: Homo sapiens
From the text: as §4, §5, §3

gdg6-G8 riboswitch = assay: Luciferase reporter assay, gdg6-G8 riboswitch, transfected HEK 293 cells; conditions: for fold induction at 100 µM: Homo sapiens, HEK293, gdg6-G8 riboswitch, Prestwick library compounds at 100 μM, HEK 293; for Fold Induction of luciferase activity: 100 µM
From the text: as §4, §5, §3

ydhl-G8 riboswitch = assay: Luciferase reporter assay, ydhl-G8 riboswitch, transfected HEK 293 cells; conditions: ydhl-G8 riboswitch, Prestwick library compounds at 100 μM, HEK 293
From the text: as §1, §2, §3

[1] = add-A6 riboswitch, Prestwick library compounds at 100 μM, HEK 293
[2] = HEK293, add-G6 riboswitch, Prestwick library compounds at 100 μM, HEK 293, read-out: Fold Induction of luciferase activity
[3] = HEK293, add-A6 riboswitch, Prestwick library compounds at 100 μM, HEK 293, read-out: Fold Induction of luciferase activity
[4] = yxj-A6 riboswitch, Prestwick library compounds at 100 μM, HEK 293
[5] = add-G6 riboswitch, Prestwick library compounds at 100 μM, HEK 293
[6] = HEK293, read-out: Fold Induction of luciferase activity
[7] = HEK293, read-out: Fold Induction of luciferase activity, ydhl-A6 riboswitch, Prestwick library compounds at 100 μM, HEK 293

Clc1ccccc1CN1CCc2sccc2C1 [Ticlopidine hydrochloride]
fold induction at 100 µM (ydhl-A6 riboswitch; HEK293, ydhl-A6 riboswitch, Prestwick library compounds at 100 μM, HEK 293, read-out: Fold Induction of luciferase activity): 3.1

C=CC[N@@+]12CC[C@@]34c5ccccc5N5/C=C6/[C@H]7C[C@H]8[C@@]9(CC[N@@+]8(CC=C)C/C7=C/CO)c7ccccc7N(/C=C(/[C@@H](C[C@@H]31)/C(=C\CO)C2)[C@H]54)[C@@H]69.[Cl-].[Cl-] [Alcuronium chloride]
Fold Induction of luciferase activity (add-A6 riboswitch; [1]): 4.2 fold

Cn1cnc([N+](=O)[O-])c1Sc1ncnc2nc[nH]c12 [Azathioprine]
fold induction at 100 µM (gdg6-A8 riboswitch): 19.9
fold induction at 100 µM (yxj-A6 riboswitch; HEK293, yxj-A6 riboswitch, Prestwick library compounds at 100 μM, HEK 293, read-out: Fold Induction of luciferase activity): 6.6
fold induction at 100 µM (xpt-G17 riboswitch): 6.2
fold induction at 100 µM (add-G6 riboswitch; [2]): 11.4
fold induction at 100 µM (add-A6 riboswitch; [3]): 6.5
fold induction at 100 µM (xpt-A8 riboswitch; HEK293, xpt-A8 riboswitch, Prestwick library compounds at 100 μM, HEK 293, read-out: Fold Induction of luciferase activity): 5.9
fold induction at 100 µM (gdg6-G8 riboswitch): 16.2

Trimeprazine tartrate
Fold Induction of luciferase activity (gdg6-A8 riboswitch): 8.7 fold
Fold Induction of luciferase activity (yxj-A6 riboswitch; [4]): 7.0 fold
Fold Induction of luciferase activity (xpt-G17 riboswitch; xpt-G17 riboswitch): 4.9 fold
Fold Induction of luciferase activity (add-G6 riboswitch; [5]): 6.2 fold
Fold Induction of luciferase activity (add-A6 riboswitch; [1]): 4.0 fold
Fold Induction of luciferase activity (gdg6-G8 riboswitch): 6.2 fold
Fold Induction of luciferase activity (ydhl-G8 riboswitch): 5.0 fold

Trimipramine maleate salt
Fold Induction of luciferase activity (gdg6-A8 riboswitch): 5.3 fold
Fold Induction of luciferase activity (yxj-A6 riboswitch; [4]): 3.3 fold
Fold Induction of luciferase activity (add-G6 riboswitch; [5]): 3.4 fold
Fold Induction of luciferase activity (add-A6 riboswitch; [1]): 3.4 fold
Fold Induction of luciferase activity (gdg6-G8 riboswitch): 3.3 fold

CN(C)CCCN1c2ccccc2Sc2ccccc21 [Promazine hydrochloride]
fold induction at 100 µM (gdg6-A8 riboswitch): 12.6
fold induction at 100 µM (yxj-A6 riboswitch; [6]): 6.6
fold induction at 100 µM (xpt-G17 riboswitch): 3.7
fold induction at 100 µM (add-G6 riboswitch; [6]): 5.4
fold induction at 100 µM (add-A6 riboswitch; [6]): 10.5
fold induction at 100 µM (xpt-A8 riboswitch; [6]): 4.1
fold induction at 100 µM (gdg6-G8 riboswitch): 6.2
fold induction at 100 µM (ydhl-G8 riboswitch; Homo sapiens, HEK293, read-out: Fold Induction of luciferase activity): 5.2

COc1cc2nc(N3CCN(C(=O)C4CCCO4)CC3)nc(N)c2cc1OC (stereo not shown) [Terazosin hydrochloride]
fold induction at 100 µM (add-A6 riboswitch; [3]): 3.5

COC1=C(OC)C(=O)C(CCCCCCCCCCO)=C(C)C1=O [Idebenone]
fold induction at 100 µM (xpt-G17 riboswitch): 3.3
fold induction at 100 µM (add-G6 riboswitch; [2]): 6.7
fold induction at 100 µM (ydhl-A6 riboswitch; [6]): 3.5

CC[C@]12CCCN3CCc4c(n(c5ccccc45)[C@@](O)(C(=O)OC)C1)[C@@H]32 [Vincamine]
fold induction at 100 µM (ydhl-A6 riboswitch; [6]): 3.3

NS(=O)(=O)c1cc2c(cc1Cl)NCNS2(=O)=O [Hydrochlorothiazide]
fold induction at 100 µM (ydhl-A6 riboswitch; [7]): 3.3

NC(=O)C[S+]([O-])C(c1ccccc1)c1ccccc1 (stereo not shown) [Modafinil]
fold induction at 100 µM (ydhl-A6 riboswitch; [7]): 3.8

Deptropine citrate
Fold Induction of luciferase activity (add-A6 riboswitch; [1]): 3.3 fold

C[C@]12CC[C@H](O)C[C@H]1CC[C@@H]1[C@@H]2C[C@@H](O)[C@]2(C)[C@@H](C3=CC(=O)OC3)CC[C@]12O [Digoxigenin]
fold induction at 100 µM (ydhl-A6 riboswitch; [7]): 4.5
Fold Induction of luciferase activity (ydhl-A6 riboswitch; ydhl-A6 riboswitch, Prestwick library compounds at 100 μM, HEK 293, 100 µM): 3.3 fold

CCN1CCCC(OC(=O)C(c2ccccc2)c2ccccc2)C1 (stereo not shown) [Piperidolate hydrochloride]
fold induction at 100 µM (ydhl-A6 riboswitch; [6]): 3.4
